The values below come from patent publication US20070015183A1, “Biomarkers for huntington's disease” (The General Hospital Corporation, priority 2005, published 2007).

SMILES strings stand for the structures.

The conditions of series [1]: HD patients, as a result of phenylbutyrate treatments. The source says: (§1) Peripheral blood samples were collected from 62 HD subjects and 53 age- and gender-matched healthy controls. The HD group included a cohort of 9 early asymptomatic carriers of the gene mutation, as determined by genetic testing, consisting of 5 females and 4 males with the average age of 22.5±2.6 years. An additional group of 21 late presymptomatic carriers of the HD mutation was also included in the study. Of these, 11 were females and 10 were males with the average age of 39±6.1. An additional 32 patients were symptomatic, 17 females and 15 males, with the average age of 49.6±5.9. The determination of the neurological status of the HD patients utilized the Huntington's Disease Rating Scale (UHDRS) performed by an experienced HD neurologist. All of the symptomatic patients were in Stage I or II of disease, as determined by the total functional capacity scores (TFC 7-12). All samples were obtained in accordance with the Institutional Review Boards and participants gave written informed consent. Blood samples were also obtained from 12 symptomatic patients (7 males and 5 females) participating in a dose-finding study of the HDAC inhibitor, sodium phenylbutyrate (SPB 11, Scandinavian Designs, Sellersville, Pa.) at Oregon Health and Science University. The dosage of sodium phenylbutyrate in these subjects ranged from 12 to 18 grams per day administered in 3 doses.

The test system of series [2] is Huntington's disease symptoms. As to conditions: HD patients, dose-finding study not powered to detect alterations in symptoms or progression.
Excerpt: as §1

Series [3] concerns 12-gene marker set (ANXA1, AXOT, CAPZA1, HIF1A, JJAZ1, P2Y5, PCNP, ROCK1, SF3B1, SP3, TAF7, YIPPEE) mRNA in blood. As to conditions: 12 HD patients, after 4 weeks of treatment, QRT-PCR, P<0.05.
Excerpt: as §1

Series [4] concerns transgenic mouse models of HD. As to conditions: Gardian et al., J. Biol. Chem. 280: 556-563, 2005; cited from earlier work.

For the molecule `O=C([O-])CCCc1ccccc1.[Na+]` [phenylbutyrate, sodium phenylbutyrate], the “total and differential cell blood counts” value in series [1] is “no consistent differences”. Moreover, the symptomatic effects entry in series [2] was “no significant symptomatic effects”. In addition, the “expression of each individual gene of the marker set in blood after treatment compared to untreated samples” value in series [3] was 8 out of 12 genes were significantly decreased and statistically significant decrease in expression of 8 out of 12 genes. Besides, the neuroprotective effects entry in series [4] was “significant neuroprotective effects”.
